From ChEMBL document CHEMBL5352416, “Benzo[b]thiophene-2-carboxamides as novel opioid receptor agonists with potent analgesic effect and reduced constipation” (Eur J Med Chem, 2022) come the findings set out here.

Assay [1] addresses T1, Mu-type opioid receptor (Homo sapiens, UniProt P35372). As to the kind of experiment: Agonist activity at human mu opioid receptor expressed in CHO-K1 cells coexpressing Galpha15 assessed as increase in fluorescence of [ca2+]i measured for 1.52 sec by FLIPR calcium assay. It counts as functional, cell-based.
The target in assay [2] is T1, Mu-type opioid receptor. Description: Agonist activity at human mu opioid receptor expressed in CHO-K1 cells coexpressing Galpha15 assessed as increase in fluorescence of [ca2+]i by measuring maximum efficacy measured for 1.52 sec by FLIPR calcium assay relative to control. In kind it is functional, cell-based. As to conditions: filed as agonist.
Assay [3] deals with Mus musculus. Description: Antinociceptive activity in thermal stimulated C57BL/6 mouse at 4.4 mg/kg, sc measured at 30 to 180 mins by tail flick test. It counts as functional, organism-based. To be noted: time 30-180 min.
In assay [4] the test system is Mus musculus. As to the kind of experiment: Antinociceptive activity in CFA-induced mechanical allodynia C57BL/6 mouse model at 4.4 mg/kg, sc administered twice daily pretreated with CFA for 2 days followed by compound addition and measured at 3 to 7 days by von frey test. In kind it is functional, organism-based. To be noted: time 3-7 day.
In assay [5] the test system is Mus musculus. Description: Induction of motivational effect in C57BL/6 mouse assessed as increase in reward behaviour at 2.5 mg/kg, sc administered for 4 days and measured on day 6 by CPP analysis. In kind it is functional, organism-based. As to conditions: time 6.0 day.
In assay [6] the test system is Mus musculus. As to the kind of experiment: Antinociceptive activity in thermal stimulated C57BL/6 mouse assessed as tail flick latency at 4.4 mg/kg, sc measured at 30 to 60 mins by tail flick test. It counts as functional, organism-based. To be noted: time 30-60 min.
The subject of assay [7] is Mus musculus. Description: Antinociceptive activity in thermal stimulated C57BL/6 mouse assessed as drug tolerance at 126.4 to 252.8 microg/kg, sc administered twice per day for 5 days and measured immediately by tail flick test. It counts as functional, organism-based. As to conditions: dose 126.4-252.8 µg/kg, time 5.0 day.

Calls of active or inactive are those of the source. The calls are words filed in the database; no cut-off is given here.

T1 sequence (P35372 whole entry): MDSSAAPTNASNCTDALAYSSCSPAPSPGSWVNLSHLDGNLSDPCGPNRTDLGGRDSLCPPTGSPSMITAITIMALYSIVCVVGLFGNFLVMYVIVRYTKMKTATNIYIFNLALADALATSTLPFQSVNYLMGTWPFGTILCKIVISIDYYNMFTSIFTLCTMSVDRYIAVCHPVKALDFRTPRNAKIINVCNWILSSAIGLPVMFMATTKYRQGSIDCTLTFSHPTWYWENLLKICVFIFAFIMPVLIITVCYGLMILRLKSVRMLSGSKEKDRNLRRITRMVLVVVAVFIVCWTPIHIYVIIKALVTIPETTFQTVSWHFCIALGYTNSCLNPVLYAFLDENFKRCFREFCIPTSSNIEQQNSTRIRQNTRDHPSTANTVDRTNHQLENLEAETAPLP

With `CN(C)C(CNC(=O)c1cc2ccccc2s1)c1cccc(F)c1` (stereo not given), the EC50 on Mu-type opioid receptor [1] stood at 1490 nM. In addition, at Mu-type opioid receptor [2], the maximal effect (Emax) is 106%.

In the case of `CN(C)C(CNC(=O)c1cc2ccccc2s1)c1ccccc1Cl` (stereo not given), the EC50 at Mu-type opioid receptor [1] is 3.04 nM. The Emax at Mu-type opioid receptor [2] worked out at 66.7%.

On to `CN1CC[C@]23c4c5ccc(O)c4O[C@H]2[C@@H](O)C=C[C@H]3[C@H]1C5`, for which the result in the assay on Mus musculus [3], with Mus musculus [5], with Mus musculus [6] and with Mus musculus [7] was Active. The result with Mus musculus [4] was inactive.

Turning to `Cc1cccc(C(CNC(=O)c2cc3ccccc3s2)N(C)C)c1` (stereo not given), the EC50 on Mu-type opioid receptor [1] amounted to 4110 nM. Further, the Emax at Mu-type opioid receptor [2] worked out at 116%.

As for `CN(C)C(CNC(=O)c1cc2ccccc2s1)c1ccccc1` (stereo not given), the EC50 on Mu-type opioid receptor [1] is 3860 nM. Further, on Mu-type opioid receptor [2], the Emax came out at 99.5%.

Turning to `Cc1ccc2c(Cl)c(C(=O)NCC(c3ccccc3Cl)N(C)C)sc2c1` (stereo not given), the EC50 at Mu-type opioid receptor [1] came out at 2580 nM. In addition, the Emax on Mu-type opioid receptor [2] amounted to 55%.

Consider `CN(C)C(CNC(=O)c1cc2ccccc2s1)c1cccs1` (stereo not given), for which the EC50 on Mu-type opioid receptor [1] was found to be 13.6 nM. At Mu-type opioid receptor [2], the Emax amounted to 131%.

As to `CN1CCc2ccccc2C1CNC(=O)c1ccc(Cl)c(Cl)c1` (stereo not given), on Mu-type opioid receptor [1], the EC50 amounted to 0.276 nM. Further, the Emax on Mu-type opioid receptor [2] is 100%.

As to `Cc1ccc2c(Cl)c(C(=O)NCC(c3ccccc3)N(C)C)sc2c1` (stereo not given), the EC50 at Mu-type opioid receptor [1] stood at 1620 nM. For the same compound, the Emax on Mu-type opioid receptor [2] amounted to 73.6%.

For the compound `Cc1ccc2cc(C(=O)NCC(c3ccccc3Cl)N(C)C)sc2c1` (stereo not given), the EC50 at Mu-type opioid receptor [1] was determined as 1890 nM. Further, the Emax on Mu-type opioid receptor [2] came out at 58.4%.

For `CN(C)C(CNC(=O)c1cccs1)c1ccccc1Cl` (stereo not given), the EC50 at Mu-type opioid receptor [1] was determined as 400 nM. Besides, the Emax at Mu-type opioid receptor [2] turned out to be 54.5%.
